Measured values taken from US12377087B2, “Compounds for the treatment of cancer” (UNIVERSITY OF LOUISVILLE RESEARCH FOUNDATION, INC., priority 2015, dated 2025).

How the values were obtained:
H460 cells [1] = assay: apoptosis by flow cytometry (annexin V / propidium iodide) in H460 cells; format: cell-based, human; details: H460, 10 μM 5MPN
Procedure: (§1) Flow Cytometry: To measure apoptosis, cells were stained with annexin V and propidium iodide and examined as previously described. […] DMSO used as vehicle. For cell cycle experiments, cells were detached, washed with cold PBS and fixed in 70% ethanol (4° C. 30 minutes). The cells then were pelleted by centrifugation, resuspended in PBS containing PI and RNase A, incubated at 37° C. in the dark for 30 minutes and analyzed by flow cytometry (BD FACSCalibur). Data were analyzed using FlowJo software (TREE STAR Inc.). Results were calculated as the mean±SD of three experiments.

Lewis lung carcinomas = assay: Lewis lung carcinoma tumor growth in mice; format: in vivo, C57BL/6 mice
LLC xenografts = assay: FDG uptake by micro-positron emission tomography in tumor-bearing mice; format: in vivo; details: 120 mg/kg by gavage, once
Procedure: At the end of the experiment, animals were euthanized, tumors removed and sections fixed in 10% formaldehyde for immunohistochemistry or snap-frozen in liquid nitrogen for analyses. Subsets of tumor-bearing mice (n=3) were injected i.p. with 2-[^18F]-fluoro-2-deoxyglucose (FDG, 150 μCi, 100 μl) and imaged by micro-positron emission tomography as previously described. Regions of interest in the tumors and cerebellum were quantified in quadruplicate and expressed as the mean±SD of the tumor:cerebellar FDG uptake ratio. Animal experiments were approved by the University of Louisville Institutional Animal Care and Use Committee.

H1299 = assay: viable cell count of H1299 cells; format: cell-based; details: H1299, 48 hours
Procedure: (§2) Cell Viability: Cells were incubated in 20% trypan blue (Sigma) for 5 minutes. Cells excluding trypan blue were counted using a standard hemocytometer (Hausser Scientific) to determine total numbers of viable cells. Data are expressed as mean±SD of three experiments.

LNCaP = assay: viable cell count of LNCaP cells; format: cell-based; details: 48 hours
Procedure: as §2

MDA-MB-231 = assay: viable cell count of MDA-MB-231 cells; format: cell-based; details: MDA-MB-231, 48 hours
Procedure: as §2

[2] = pharmacokinetic profile of 5MPN after IV and oral administration; format: in vivo; details: C57BL/6 mice
Procedure: In vivo Studies. The pharmacokinetic profile was determined in female C57BL/6 mice following IV and oral administration of 5MPN. Using only female mice lowered the animal numbers required for meaningful results without issues of potential gender differences in exposure. Eight time points (n=3/time point) were used to determine PK parameters calculated using WinNonLin v5.0. Plasma samples were extracted using acetonitrile and analyzed by LC/MS-MS using a PhenomexSynergi Polar-RP 4 micron 50×2.0 mm column eluted with a biphasic mobile phase (0.5% formic acid in acetonitrile and water).

H460 cells [3] = assay: cell cycle analysis by flow cytometry in H460 cells; format: cell-based, human
Procedure: as §1

H441 = assay: viable cell count of H441 cells; format: cell-based; details: H441, 48 hours
Procedure: as §2

[4] = two-week oral toxicity study; format: in vivo; details: C57BL/6 mice, 120 mg/kg PO for two weeks
Procedure: Given the potential usefulness of oral administration in terms of cost and convenience, we elected to pursue this route in subsequent toxicity and efficacy pre-clinical studies. Initially, we dosed C57BL/6 mice with 120 mg/kg PO for two weeks and analyzed the effect on complete blood counts, electrolytes, hepatic and renal function, body mass and the gross and histological appearance of the brain, heart, lungs, liver, kidneys and spleen. […] Next, the effects of oral administration of 5MPN on intratumoral F2,6BP and glucose uptake by LLC xenografts was examined. […] It was confirmed that 5MPN caused a G1 arrest in LLC cells in vitro similar to H460 cells (FIG. 4G). The number of Ki67-positive cells was examined since Ki-67 expression correlates with later S and G2 phases of the cell cycle (Sasaki K et al. The cell cycle associated change of the Ki-67 reactive nuclear antigen expression. J Cell Physiol 1987 December; 133(3):579-84).

PFKFB3 = PFKFB3 (Homo sapiens, UniProt Q16875); assay: kinase activity of PFKFB3; format: biochemical; details: 10 μM
NHBE cells = assay: viable cell count of normal human bronchial epithelial cells; format: cell-based; details: 48 hours
Text: Cell lines and cell culture: H460, H1299, H441, H522 and A549 non-small cell lung cancer (NSCLC), MDA-MB-231 (breast), LNCaP (prostatic) and HCT116 (colon) adenocarcinoma and Lewis lung carcinoma (LLC) cell lines were obtained from ATCC and used within 6 months of acquisition, PFKFB4^7 ear pinna Fibroblasts isolated from TamCre/loxP/PFKFB4^−/− mice were immortalized as described previously (Chesney J et al. Fructose-2,6-bisphosphate synthesis by 6-phosphofructo-2-kinase/fructose-2,6-bisphosphatase 4 (PFKFB4) is required for the glycolytic response to hypoxia and tumor growth. Oncotarget 2014 Aug. 30; 5(16):6670-86). Normal bronchial epithelial cells (NHBE) were obtained from Lonza and NHBE cells expressing telomerase, SV40 large T antigen and activated Ras (hT/LT/Ras) were a gift from Dr. B. J. Rollins, Dana Farber Cancer Institute. All cell lines were tested and found negative for mycoplasma (PCR Mycoplasma Detection Kit, ABM). […]
as §2

PFKFB3, sequence (Q16875 whole entry, species assumed): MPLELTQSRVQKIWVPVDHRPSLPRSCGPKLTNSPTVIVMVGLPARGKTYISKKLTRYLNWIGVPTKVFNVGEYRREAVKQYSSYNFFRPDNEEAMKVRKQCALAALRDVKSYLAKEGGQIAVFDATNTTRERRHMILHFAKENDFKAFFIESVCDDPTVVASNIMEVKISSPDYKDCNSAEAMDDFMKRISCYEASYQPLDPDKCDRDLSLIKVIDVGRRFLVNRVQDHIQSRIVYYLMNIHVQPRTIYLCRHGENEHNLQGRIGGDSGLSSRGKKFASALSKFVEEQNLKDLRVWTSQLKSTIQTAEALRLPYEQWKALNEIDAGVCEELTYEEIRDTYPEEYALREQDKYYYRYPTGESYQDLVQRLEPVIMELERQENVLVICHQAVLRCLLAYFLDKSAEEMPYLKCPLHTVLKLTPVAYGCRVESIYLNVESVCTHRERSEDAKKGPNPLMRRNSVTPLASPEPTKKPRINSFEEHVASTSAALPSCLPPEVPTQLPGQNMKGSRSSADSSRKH

## COc1cccc2c(NCCCCCO[N+](=O)[O-])ccnc12 [5MPN, 5-[(8-methoxyquinolin-4-yl)amino]pentyl nitrate]
H460 cells [1]
  apoptotic cells: minimal increase
Lewis lung carcinomas; LLC-bearing C57BL/6 mice, 120 mg/kg oral daily
  body weight: without affecting body weight
Lewis lung carcinomas; syngeneic C57BL/6 mice, 120 mg/kg daily by gavage, two weeks
  tumor growth of Lewis lung carcinomas: suppressed the growth
LLC xenografts
  2-[18F]-fluoro-2-deoxyglucose uptake, positron emission tomography: marked reduction
H1299
  growth, viable cells: dose-dependent reduction in growth
LNCaP
  growth, viable cells: dose-dependent reduction in growth
MDA-MB-231
  growth, viable cells: dose-dependent reduction in growth
[2]
  oral bioavailability: High Oral Bioavailability
[2]; IV and oral
  pharmacokinetics of intravenous and oral administration: both routes were adequate to achieve potentially therapeutic concentrations
H460 cells [3]; H460, 10 μM 5MPN
  cell cycle distribution (G1, S, G2): marked G1 arrest
H460 cells [3]; H460 transfected with PFKFB4, 10 μM 5MPN, 24 hours
  G1 arrest with over-expression of PFKFB4: reversed
H441
  growth, viable cells: dose-dependent reduction in growth
[4]
  toxicity: blood counts, electrolytes, hepatic and renal function, body mass, organ histology, behavioral or clinical changes: no signs of toxicity
PFKFB3
  inhibition of PFKFB3 kinase activity: no inhibition of kinase activity
NHBE cells
  cell growth, live cells: virtually unaffected
